From US20200239547A1, “ANTICANCER PEPTIDES” (IDP DISCOVERY PHARMA, S.L., priority 2017, published 2020) come the findings set out here.

For one experiment, the system named is SCLC cell lines. Nature of the experiment: Viability assay, summary over SCLC cell lines. The following applies: summary in words of Table 3. The class given is cell-based. The method, then: MCF-7 and NCl-H187 cells were seeded at a density of 5000 cells/well; NCl-H82 were seeded at a density of 2500 cells/well; HL-60, RPMI, U266 and NCl-H510A at 10000 cells/well in 100 μl of medium in 96 well plates. After 24 h, the compounds to be tested were added to calculate the dose/response curve at the starting concentration of 100 μM with serial dilutions (1:1). Controls are the untreated cells. Each experiment was performed in triplicate.
(§1) Cells were incubated during 48-72 h in incubator under CO2 atmosphere at 37° C. Cell viability was measured by means of MTT (3-(4,5-dimethylthiazol-2-yl)-2,5-diphenyltetrazolium bromide) assay, Alamar Blue® (Biosource DAL1100) and Hexosaminidase activity test, consecutively, following manufacturer instructions.
Data analysis was performed calculating the percentage of cell viability normalized vs. the values of negative control, which was considered equal to 100%. The dose/response curve was fitted through the sigmoidal equation dose-response (variable slope) and the […] values were calculated as follow: […]

Experiment [1] has as its target MCF-7, epithelial (breast cancer).
Procedure: MCF-7, epithelial (breast cancer), ECACC: 86012803
(§6) Cell line MCF-7 was cultured in incubator under CO2 (6%) at 37° C. in DMEM high glucose (Dulbecco's Modified Eagle Solution, Gibco-BRL 31966-21) medium with 10% fetal bovine serum inactivated (FBS) (Gibco-BRL 10106-169). Cell lines HL-60, RPMI and U266 were cultured in incubator at 37° C. in RPMI-1640 (Sigma R8758) medium with 10% of fetal bovine serum inactivated (FBS) and 2 mM glutamine (Sigma G7513).
(§7) During the amplification step and the assays adherent cells were rinsed with DPBS (Dulbecco's Phosphate Buffered Saline, Sigma D1283) three times and afterward treated for 5 minutes with trypsin ([0.5 g/ml]/EDTA [0.2 g/ml]) (Gibco-BRL, 15400054) in solution of DPBS at 37° C., and, once detached, transferred in the culturing medium. No-adherent cells were centrifuged and transferred in the culturing medium. Cells were counted in a Neubauer chamber after labelling with Tripan-Blue.
(§8) MTT: 1. Stock solution of MTT (475989 Calbiochem) was 5 mg/ml in PBS 1×. As negative control (experiment noise) 3 wells were treated with 20 μl/well of a solution of SDS 10% in H2O. The same control was used for Alamar Blue/Hexosaminidase. 10 μl/well of MTT solution were added and the plate was incubated for 3-4 hr. The medium was discarded and 100 μl of extracting buffer (PBS 1×, 15% SDS, 50% Na N,N-Dimethylformamide, pH 4.7) were added to each well. Plates were incubated for 16h at room temperature under orbital shaking. Absorbance at 570 nm was finally measured.
(§9) Alamar Blue: 10 μl Alamar Blue solution was added to each well and the plates were incubated for 4 in the incubator. Fluorescence ratio at 535/590 (excitation/emission) was measured in Cytofluor (Millipore) fluorimeter. Blank control was determined by lysis of untreated cells with con 2% of Triton X100, right before adding Alamar Blue solution.
(§10) Hexosaminidase activity test: after Alamar Blue lecture, medium was discarded and plates were rinsed once with PBS. 60 μl hexosaminidase substrate (p-nitrophenol-N-acetyl-beta-D-glucosamide 7.5 mM [Sigma N-9376], sodium citrate 0.1 M, pH 5.0, 0.25% Triton X-100) was added to each well and the plates were incubated at 37° C. for 2-5 h, according to the cell type (hexosaminidase activity changes according to the cell type). […] Blank control was the same as described before.
(§11) Data analysis was performed calculating the percentage of cell viability normalized vs. the values of negative control, which was considered equal to 100%. The dose/response curve was fitted through the sigmoidal equation dose-response (variable slope) and the ECK values were calculated as follow:
The test system of experiment [2] is HL-60, promyeloblast (acute myelocytic leukemia, AML).
Procedure: HL-60, promyeloblast (acute myelocytic leukemia, AML), ECACC: 98070106
as §6, §7, §8, §9, §10, §11
In experiment [3] the test system is RPMI, lymphoblast (myeloma).
Procedure: RPMI, lymphoblast (myeloma), ATCC® CCL155™
Cell lines HL-60, RPMI and U266 were cultured in incubator at 37° C. in RPMI-1640 (Sigma R8758) medium with 10% of fetal bovine serum inactivated (FBS) and 2 mM glutamine (Sigma G7513).
as §7, §8, §9, §10, §11
The test system of experiment [4] is U266, lymphoblast (myeloma).
Procedure: U266, lymphoblast (myeloma), ATCC® TIB196™
as §6, §7, §8, §9, §10, §11
Y=Bottom+(Top-Bottom)/(1+10̂{[(LogEC50-X)*HillSlope]},
The test system of experiment [5] is NCl-H510A, epithelial (small cell lung cancer, SCLC). In words: Viability assay in NCl-H510A. It is filed as cell-based. The following applies: H510A cell line, 48-72 h incubation. The method, then:
NCl-510A, epithelial (small cell lung cancer, SCLC), ATCC-HBT-124
(§2) Cell lines NCl-H82, NCl-H187 were cultured in incubator at 37° C. in RPMI-1640 (Sigma R8758) medium with 10% of fetal bovine serum inactivated (FBS) and 2 mM glutamine (Sigma G7513). Cell line NCl-H510A was cultured in incubator in F12K medium with 10% of fetal bovine serum inactivated (FBS).
(§3) During the amplification step and the assays adherent cells were rinsed with DPBS (Dulbecco's Phosphate Buffered Saline, Sigma D1283) three times and afterward treated for 5 minutes with trypsin ([…]) (Gibco-BRL, 15400054) in solution of DPBS at 37° C., and, once detached, transferred in the culturing medium. […] Cells were counted in a Neubauer chamber after labelling with Tripan-Blue. […]
as §1
(§4) MTT: 1. […] Absorbance at 570 nm was finally measured.
(§5) Alamar Blue: 10 μl Alamar Blue solution was added to each well and the plates were incubated for […] in the incubator. Fluorescence ratio at 535/590 (excitation/emission) was measured in Cytofluor (Millipore) fluorimeter. […]

Experiment [6] has as its system NCl-H187, epithelial (small cell lung cancer, SCLC). In words: Viability assay in NCl-H187. The following applies: H187 cell line, 48-72 h incubation. The class given is cell-based. The method, then:
NCl-H187, epithelial (small cell lung cancer, SCLC), ATCC-CRL-5804
as §2, §3, §1, §4, §5

Experiment [7] concerns NCl-H82, epithelial (small cell lung cancer, SCLC). In words: Viability assay in NCl-H82. The class given is cell-based. The following applies: H82 cell line, 48-72 h incubation. The method, then: NCl-H82, epithelial (small cell lung cancer, SCLC), ATCC-CRL-5811
as §2, §3, §1, §4, §5

Starred links: 1 amine or outer side, 2 acyl side, 3 side chain; linkers in the order of their positions; H or OH if unused. Positions of bridges follow the written chain, without caps; N, C: chain ends. Non-standard residues stand in square brackets, D forms with d. Residues, ends and D or L forms follow the SMILES beside them. No end group written: not given here. ξ: configuration not given here. ξαMeNle(6-ylidene) = CC(CCCC=[*:3])(N[*:1])C(=O)[*:2]; X1 = CC(CCCCCCC=[*:3])(N[*:1])C(=O)[*:2]; R8 = C=CCCCCCC[C@@](C)(N)C(=O)O; S5 = C=CCCC[C@](C)(N)C(=O)O

For `CC[C@H](C)[C@H](NC(=O)[C@H](CCCCN)NC(=O)[C@@H](NC(=O)[C@H](CCC(N)=O)NC(=O)[C@@H](N)CCCNC(=N)N)[C@@H](C)CC)C(=O)N[C@@H](Cc1c[nH]c2ccccc12)C(=O)N[C@@H](Cc1ccccc1)C(=O)N[C@@H](CCC(N)=O)C(=O)N[C@@H](CC(N)=O)C(=O)N[C@@H](CCCNC(=N)N)C(=O)N[C@@H](CCCNC(=N)N)C(=O)N[C@@H](CCSC)C(=O)N[C@@H](CCCCN)C(=O)N[C@@H](Cc1c[nH]c2ccccc12)C(=O)N[C@@H](CCCCN)C(=O)N[C@@H](CCCCN)C(=O)N[C@@H](CO)C(=O)N[C@@H](CCCCN)C(=O)N[C@@H](C)C(=O)N1CCC[C@H]1C(=O)N[C@@H](CCCCN)C(=O)N[C@H](C(=O)N[C@H](C(=O)N[C@H](C(=O)N[C@@H](CC(C)C)C(=O)N[C@@H](CO)C(=O)N[C@@H](CCCCN)C(=O)N[C@@H](C)C(=O)N[C@@H](CC(C)C)C(=O)N[C@@H](CCC(=O)O)C(=O)N[C@@H](Cc1ccc(O)cc1)C(=O)N[C@@H](CC(C)C)C(=O)N[C@@H](CCC(N)=O)C(=O)N[C@@H](C)C(N)=O)[C@@H](C)CC)C(C)C)C(C)C` [IDP-LLCb02], in the experiment with SCLC cell lines, the “anti-cancer activity in SCLC cell lines” value is “showed anti-cancer activity”.
Take `CC(C)C[C@H](NC(=O)[C@H](C)NC(=O)[C@H](CC(C)C)NC(=O)C1(C)CCCC=CCCCCCCC(C)(NC(=O)[C@H](CCCNC(=N)N)NC(=O)[C@H](CCCCN)NC(=O)[C@@H](N)CCCNC(=N)N)C(=O)N[C@@H](CC(N)=O)C(=O)N[C@@H](CC(=O)O)C(=O)N[C@@H](CC(C)C)C(=O)N[C@@H](CCCNC(=N)N)C(=O)N[C@@H](CO)C(=O)N[C@@H](CCCNC(=N)N)C(=O)N1)C(=O)N[C@@H](CCCNC(=N)N)C(=O)N[C@@H](CC(=O)O)C(=O)N[C@@H](CCC(N)=O)C(N)=O` (stereo partly shown) [IDP-LS05, RKRXNDLRSRXLALRDQ] (H-RKR[X1]NDLRSR[ξαMeNle(6-ylidene)]LALRDQ-NH2; staple 4-11; N-terminus and C-terminus assumed): the EC50 in experiment [1] was greater than 100 µM; in experiment [2] it was roughly 5 µM; in experiment [3] it was roughly 6 µM; in experiment [4], greater than 100 µM.
Take `CC(C)C[C@@H]1NC(=O)[C@H](C)NC(=O)[C@H](CC(C)C)NC(=O)[C@H](Cc2ccccc2)NC(=O)[C@H](CCCNC(=N)N)NC(=O)[C@H](CO)NC(=O)[C@](C)(NC(=O)[C@H](CC(C)C)NC(=O)[C@H](CC(=O)O)NC(=O)[C@H](CC(N)=O)NC(=O)[C@H](CCCNC(=N)N)NC(=O)[C@H](CCCNC(=N)N)NC(=O)[C@H](CCCCN)NC(=O)[C@@H](N)CCCNC(=N)N)CCCCCCC=CCCC[C@@](C)(C(=O)N[C@@H](CC(=O)O)C(=O)N[C@@H](CCC(N)=O)C(N)=O)NC1=O` [IDP-LS13, RKRRNDLXSRFLALXDQ] (H-RKRRNDL[R8]SRFLAL[S5]DQ-NH2; staple 8-15; N-terminus and C-terminus assumed): the EC50 in experiment [1] is roughly 10 µM; in experiment [2], roughly 7 µM; in experiment [3], roughly 9 µM; in experiment [4], roughly 10 µM.
For the compound `CC(C)C[C@@H]1NC(=O)[C@H](C)NC(=O)[C@H](CC(C)C)NC(=O)[C@H](Cc2ccccc2)NC(=O)C(C)(NC(=O)[C@H](CO)NC(=O)[C@H](CCCNC(=N)N)NC(=O)[C@H](CC(C)C)NC(=O)[C@H](CC(=O)O)NC(=O)[C@H](CC(N)=O)NC(=O)[C@H](CCCNC(=N)N)NC(=O)[C@H](CCCNC(=N)N)NC(=O)[C@H](CCCCN)NC(=O)[C@@H](N)CCCNC(=N)N)CCCCCCC=CCCCC(C)(C(N)=O)NC(=O)[C@H](CC(=O)O)NC(=O)[C@H](CCCNC(=N)N)NC1=O` (stereo partly shown) [IDP-LS15, RKRRNDLRSXFLALRDX] (H-RKRRNDLRS[X1]FLALRD[ξαMeNle(6-ylidene)]-NH2; staple 10-17 (inferred); N-terminus and C-terminus assumed), the 50% effective concentration (EC50) in experiment [1] was greater than 100 µM; in experiment [2], greater than 100 µM; in experiment [3] it was roughly 7 µM; in experiment [4] it was roughly 8 µM.
Regarding `CC(C)C[C@@H]1NC(=O)[C@H](C)NC(=O)[C@H](CCCCN)NC(=O)[C@H](CO)NC(=O)[C@H](CC(C)C)NC(=O)C(C)(NC(=O)[C@@H](NC(=O)[C@@H](NC(=O)[C@H](CCCCN)NC(=O)[C@@H]2CCCN2C(=O)[C@H](C)N)C(C)C)C(C)C)CCCCCCC=CCCCC(C)(C(=O)N[C@@H](CC(C)C)C(=O)N[C@@H](CCC(N)=O)C(=O)N[C@@H](C)C(N)=O)NC(=O)[C@H](CCC(=O)O)NC1=O` (stereo partly shown) [IDP-LS16, APKVVXLSKALEXLQA] (H-APKVV[X1]LSKALE[ξαMeNle(6-ylidene)]LQA-NH2; staple 6-13; N-terminus and C-terminus assumed), the EC50 was greater than 100 µM in experiment [1], greater than 100 µM in experiment [2], roughly 15 µM in experiment [3] and roughly 10 µM in experiment [4].
As to `CC[C@H](C)[C@H](NC(=O)[C@@H](NC(=O)[C@@H](NC(=O)[C@H](CCCCN)NC(=O)[C@@H]1CCCN1C(=O)[C@H](C)N)C(C)C)C(C)C)C(=O)N[C@@H](CC(C)C)C(=O)NC1(C)CCCCCCC=CCCCC(C)(C(=O)N[C@@H](C)C(N)=O)NC(=O)[C@H](CC(C)C)NC(=O)[C@H](Cc2ccc(O)cc2)NC(=O)[C@H](CCC(=O)O)NC(=O)[C@H](CC(C)C)NC(=O)[C@H](C)NC(=O)[C@H](CCCCN)NC1=O` (stereo partly shown) [IDP-LS17, APKVVILXKALEYLXA] (H-APKVVIL[X1]KALEYL[ξαMeNle(6-ylidene)]A-NH2; staple 8-15 (inferred); N-terminus and C-terminus assumed), the concentration giving a half-maximal response (EC50) in experiment [1] was greater than 100 µM; in experiment [2], greater than 100 µM; in experiment [3], roughly 10 µM; in experiment [4], roughly 16 µM.
Take “RKRRNDLRSRFLALRDQ-NH2 (C-terminus assumed) [IDP-wtL05, Arg-Lys-Arg-Arg-Asn-Asp-Leu-Arg-Ser-Arg-Phe-Leu-Ala-Leu-Arg-Asp-Gln]”: the concentration giving a half-maximal response (EC50) was greater than 100 µM in experiment [1], greater than 100 µM in experiment [2], roughly 10 µM in experiment [3] and greater than 100 µM in experiment [4]. The “activity in RPMI cell lines” value in experiment [3] (summary in words of Table 2) is recorded as “shows activity”.
On to “RRRRRRRRKRRNDLRSRFLALRDQ-NH2 [IDP-intwtL05]”, for which the EC50 in experiment [1], in experiment [2], in experiment [3] and in experiment [4] was greater than 100 µM in each case.
Turning to “RRRRRRRSKAPKVVILSKALEYLQA-NH2 [IDP-LLCb01]”, the EC50 in experiment [5] was roughly 5 µM; in experiment [6], roughly 5 µM; in experiment [7], roughly 2.5 µM. For the same compound, the “anti-cancer activity in SCLC cell lines” value in the experiment with SCLC cell lines is “showed anti-cancer activity”.
